Data as given in patent US20170368134A1, “PROTEASOME INHIBITORS FOR TREATING A DISORDER RELATED TO AN ACCUMULATION OF NON-DEGRADED ABNORMAL PROTEIN OR A CANCER” (UNIVERSITÉ D'AIX-MARSEILLE, priority 2015, published 2017).
Square brackets hold non-standard residues; d marks the D form. Peptide text beside a SMILES is read from it. * marks the point of attachment. Nva = CCC[C@H](N)C(=O)O; Cbz = O=C(OCc1ccccc1)*; CH2F = FC*

Assays:
progerin = experiment: Western blot of progerin levels in HGPS fibroblasts; type: cell-based, human; settings: HGPS fibroblasts; for progerin clearance / suppression of progerin accumulation compared with MG132: 10 μM, 48 h (FIG. 1C); for effect on MG132-induced progerin clearance (co-treatment with MG132): 48 h, added together with MG132; for progerin expression levels, inhibitor alone: alone at high doses
Method: HGPS fibroblasts (AG01972: person, AG11498: person) were obtained from the Coriell Cell Repository. Cells were cultured in Dulbecco's modified Eagle's medium (Life Technologies) supplemented with 15% fetal bovine serum (Life Technologies), 2 mM L-glutamine (Life Technologies) and 1× penicillin-streptomycin (Life Technologies) at 37° C. in a humidified atmosphere containing 5% CO2. […]
(§1) Total fibroblast proteins were extracted in 200 μL of NP40 Cell Lysis buffer (Invitrogen, Carlsbad, Calif.) containing Protease and Phosphatase Inhibitor Cocktail (Thermo Scientific). Alternatively, cells were lysed with urea (8 M urea, 5 mM dithiothreitol, 150 mM NaCl, 50 mM Tris-Cl pH 7.5, protease and phosphatase Inhibitor Cocktail (Thermo Scientific)). Cells were sonicated twice (30 sec each), incubated at 4° C. for 30 minutes and then centrifuged at 10,000 g for 10 minutes. Protein concentration was evaluated with the bicinchoninic acid technique (Pierce BCA Protein Assay Kit), absorbance at 562 nm is measured using nanodrop 1000 (Thermo Fisher Scientific Inc.) Equal amounts of proteins (40 μg) were loaded onto 10% Tis-Glycine gel (Criterion™ XT precast gel) using XT Tricine running Buffer (Biorad, USA). After electrophoresis, gels were electro transferred onto nitrocellulose membranes or Immobilon-FL polyvinylidene fluoride membranes (Millipore), blocked in Odyssey Blocking Buffer diluted 1:1 in PBS for 1 hour at room temperature, and incubated overnight at 4° C. or 2 hours at room temperature with various primary antibodies. Blots were washed with TBS-T buffer [20 mM tris (pH 7.4), 150 mM NaCl, and 0.05% Tween 20] and incubated with 1:10,000 IR-Dye 800-conjugated secondary donkey anti-goat or IR-Dye 700-conjugated secondary anti-mouse antibodies (LI-COR Biosciences) in Odyssey blocking buffer (LI-COR Biosciences). For IR-Dye 800 and IR-Dye 700 detection, an Odyssey Infrared Imaging System (LI-COR Biosciences) was used. GAPDH, α-tubulin or β-actin were used as a total cellular protein loading control.

proteasome = molecular target: T1, proteasome (Homo sapiens, UniProt P28072+P28074+Q99436); experiment: Proteasome-Glo cell-based proteasome activities (chymotrypsin-like, trypsin-like, caspase-like) in HGPS cells; settings: HGPS cells treated with the autophagy inhibitor
T1 construct: The proteasome activities were determined in HGPS and control cells; endogenous in cells; host or cells: HGPS fibroblasts (AG01972, AG11498, 5968)
T1 sequence (P28074 60-263): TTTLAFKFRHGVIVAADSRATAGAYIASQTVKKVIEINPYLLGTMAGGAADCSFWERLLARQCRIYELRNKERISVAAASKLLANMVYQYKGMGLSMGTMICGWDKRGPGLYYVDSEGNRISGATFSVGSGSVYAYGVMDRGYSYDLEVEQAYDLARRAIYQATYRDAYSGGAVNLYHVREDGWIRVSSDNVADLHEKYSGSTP
T1 sequence (Q99436 44-277): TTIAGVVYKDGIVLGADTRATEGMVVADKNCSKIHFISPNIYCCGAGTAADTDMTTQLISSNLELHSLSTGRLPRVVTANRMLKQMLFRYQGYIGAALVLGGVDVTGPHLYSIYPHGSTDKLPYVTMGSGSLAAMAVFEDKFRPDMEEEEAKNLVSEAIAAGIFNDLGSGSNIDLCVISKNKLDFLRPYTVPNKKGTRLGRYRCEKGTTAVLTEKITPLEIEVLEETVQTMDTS
T1 sequence (P28072 1-239): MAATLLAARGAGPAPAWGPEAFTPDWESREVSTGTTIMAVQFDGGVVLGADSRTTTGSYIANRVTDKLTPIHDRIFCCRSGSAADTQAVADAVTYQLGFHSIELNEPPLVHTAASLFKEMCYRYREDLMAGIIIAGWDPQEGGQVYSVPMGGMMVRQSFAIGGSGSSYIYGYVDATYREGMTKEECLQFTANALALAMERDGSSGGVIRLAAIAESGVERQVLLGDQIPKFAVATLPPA
Method: The proteasome activities were determined in HGPS and control cells by using the Proteasome-Glo™ 3-Substrate Cell-Based Assay System (Promega) that allows to measure the chymotrypsin-like, trypsin-like or caspase-like protease activity associated with the proteasome complex in cultured cells. The Proteasome-Glo™ Cell-Based Reagents each contain a specific luminogenic proteasome substrate. These peptide substrates are Suc-LLVY amino luciferin (Succinyl-leucine-leucine-valine-tyro sine-amino luciferin), Z-LRR-amino luciferin (Z-leucine-arginine-arginine-aminoluciferin) and Z-nLPnLD-amino luciferin (Z-norleucine-proline-norleucine-aspartate-amino luciferin) for the chymotrypsin-like, trypsin-like and caspase-like activities, respectively. Cells (10,000 cells/well) were cultured in 100 μl/well in a 96-well plate at 37° C., 5% CO2. The plate was allowed to equilibrate to 22° C. before 100 μl/well of substrate and luciferin detection reagent was added. The contents of the wells were mixed at 700 rpm using a plate shaker for 2 minutes and incubated at room temperature for 10 minutes. Following cleavage by the proteasome, the substrate for luciferase (amino luciferin) is released, allowing the luciferase reaction to proceed and produce light. Luminescence is determined as relative light units (RLUs) using a GloMax-Multi Detection System: Luminometer (Promega, USA).

SRSF-1 = experiment: Western blot of SRSF-1 in HGPS fibroblasts; type: cell-based, human; settings: for SRSF-1 levels, autophagy inhibitor alone: HGPS fibroblasts, chloroquine 50 μM, bafilomycin A1 100 nM
Method: as §1

Row | Structure (SMILES) | progerin clearance / suppression of progerin accumulation compared with MG132 (progerin) | effect on MG132-induced progerin clearance (co-treatment with MG132) (progerin) | further results
1 | CCC[C@@H](C=O)NC(=O)[C@H](CC(C)C)NC(=O)[C@H](CC(C)C)NC(=O)OCc1ccccc1 [MG115, Z-Leu-Leu-Nva-H] (Cbz-Leu-Leu-[Nva]-aldehyde) | the same efficacy in suppressing progerin accumulation | – | –
2 | CC(C)C[C@H](NC(=O)[C@H](CC(C)C)NC(=O)[C@H](CC(C)C)NC(=O)OCc1ccccc1)B(O)O [MG262, Z-Leu-Leu-Leu-B(OH)2] | less effective | – | –
3 | CO/C1=C\C(C)=C\[C@@H](C)[C@@H](O)[C@@H](C)C/C(C)=C/C=C/[C@H](OC)[C@@H]([C@@H](C)[C@@H](O)[C@H](C)[C@@]2(O)C[C@@H](O)[C@H](C)[C@@H](C(C)C)O2)OC1=O [bafilomycin A1] | – | partially inhibited the effect of MG132 | three proteasome activities (proteasome): not modified; SRSF-1 levels, autophagy inhibitor alone (SRSF-1): decrease SRSF-1 levels; progerin expression levels, inhibitor alone (progerin): reduced expression levels of progerin
4 | CC(C)C[C@H](NC(=O)[C@H](Cc1ccccc1)NC(=O)c1cnccn1)B(O)O [bortezomib] | do not induce progerin clearance | – | –
5 | CC(C)C[C@H](NC(=O)[C@H](CCc1ccccc1)NC(=O)CN1CCOCC1)C(=O)N[C@@H](Cc1ccccc1)C(=O)N[C@@H](CC(C)C)C(=O)[C@@]1(C)CO1 [carfilzomib] | do not induce progerin clearance | – | –
6 | CC[C@H](C)[C@H](NC(=O)[C@H](CCC(=O)OC)NC(=O)[C@@H](NC(=O)OCc1ccccc1)C(C)C)C(=O)N[C@@H](CC(=O)OC)C(=O)CF [caspase-6 inhibitor, Z-VEID-FMK] (Cbz-VE(OMe)ID(OMe)-CH2F) | – | progerin level remained below the HGPS control | –
7 | CCN(CC)CCCC(C)Nc1ccnc2cc(Cl)ccc12 (stereo not drawn) [chloroquine] | – | – | three proteasome activities (proteasome): not modified; SRSF-1 levels, autophagy inhibitor alone (SRSF-1): decrease SRSF-1 levels; progerin expression levels, inhibitor alone (progerin): reduced expression levels of progerin
8 | CCC(=C/[C@H](C)C/C=C/C(C)=C/[C@@H](C)C(=O)[C@@H](C)[C@H](O)[C@@H](C)C/C(C)=C/C(=O)O)/C=C/[C@@H]1OC(=O)C=C[C@@H]1C [leptomycin B] | – | does not inhibit MG132 induced progerin clearance | –
9 | COC(=O)C[C@H](NC(=O)[C@H](C)NC(=O)[C@@H](NC(=O)OCc1ccccc1)C(C)C)C(=O)CF [pan-caspase inhibitor, Z-VAD-FMK] (Cbz-Val-Ala-Asp(OMe)-CH2F) | – | increase of progerin that slightly reaches the control levels | SRSF-1 protein expression, added during MG132 treatment (SRSF-1; HGPS cells, co-treatment with MG132): rescue of SRSF-1 protein expression
